Number of colonies data for 1 substance are collected here from patent US20090011424A1, “Cancer-suppressing agents” (Tokyo Medical and Dental University, priority 2005, published 2009).

In data set [1] the test system is IMR32 cells. Kind of data set: soft agar colony formation after gene introduction. Type of data set: cell-based, human. As to conditions: 3 weeks, 500 μg/ml G418, vs empty vector. How it is done: (§1) Adherence to solid matter has been known as an example of a difference between properties of normal cells and those of cancer cells under culture conditions. In other words, it is necessary for normal cells to adhere to solid matter for cell proliferation (anchorage dependence). When normal cells are cultured in a soft agar medium (about 0.33%), they can not proliferate while floating in such medium. However, many cancer cells lack anchorage dependence so that they can proliferate in a soft agar medium. Since floating cancer cells cannot move in a soft agar medium, a single cancer cell is repeatedly divided such that the divided cells form a colony in 1 to 3 weeks time. Since there is a correlation between the ability of the cell to form a soft agar colony and the implanted tumor forming ability, the degree of such ability has been widely used as an index of malignancy (Shin, S. I., et al., Proc. Natl. Acad. Sci. USA 72, 4435, 1975). A full-length NR1I2 cDNA was inserted into pCMV-Tag3 vector (Stratagene) in which an myc peptide can be added to the amino terminal of an inserted gene (PCMV-Tag3-NR1I2). In addition, we already have discovered that a fusion product of a herpes-virus-derived VP16 protein and an NR1I2 protein has stronger transcriptional activity than that of an NR1I2 protein alone. […] Then, the number of colonies was counted (FIGS. 8A and 8B).

The subject of data set [2] is SMS-KAN cells. Kind of data set: soft agar colony formation after gene introduction. In kind it is cell-based, human. As to conditions: 3 weeks, 500 μg/ml G418, vs empty vector. How it is done: as §1

With “NR1I2 gene: human-derived gene, nuclear receptor subfamily 1, group I, member 2 (pregnane X receptor, PXR), nucleotide sequence SEQ ID NO: 1”, the number of colonies result in data set [1] and in data set [2] was “significantly reduced” throughout.
